Results as given in patent US20220265635A1, “TREATMENT OF NEUROLOGICAL DISEASE” (Aclipse One Inc., priority 2018, published 2022).

Experiments:
TDP-43^Q331K mouse model = assay: Example 4 electrophysiology: compound muscle action potential (CMAP); assay type: in vivo; conditions: TDP-43^Q331K mice
Description: (§1) Following genotyping, transgenic females were block randomized into three different dosing groups: vehicle once daily, 2.5 mg/kg (6aS)-6-methyl-5,6,6a,7-tetrahydro-4H-dibenzo[de,g]quinoline-10,11-diol twice daily and 5 mg/kg (6aS)-6-methyl-5,6,6a,7-tetrahydro-4H-dibenzo[de,g]quinoline-10,11-diol once daily. The doses were selected based on results of previous internal studies. Animals were weighed daily before dosing and dosed subcutaneously at 10 ml/kg with a solution of 0.5 mg/ml (6aS)-6-methyl-5,6,6a,7-tetrahydro-4H-dibenzo[de,g]quinoline-10,11-diol for the 5 mg/kg dose and 0.25 mg/ml for the 2.5 mg/kg dose. Where animals were dosed twice a day, the doses were at least 6 hours apart and the dosing solution was freshly made for the second dose of the day.
(§2) The study was designed with two main cohorts of mice. One cohort was dosed from 25 days of age until 6 months of age and mice had behavioral testing throughout the study and consisted of 14 mice per group. The other satellite cohort was dosed from 25 days of age until 3 months of age, with no behavioral testing and consisted of 6 mice per group for target engagement and histological assessment. Behavioral tests that were carried out during the experiment were: accelerated rotarod test, gait analysis, and electrophysiology.
Electrophysiological assessment of compound action muscle potential (CMAP) and repetitive stimulation was carried out at 6 weeks, 3 months and 6 months of age.
Mice were anesthetized using gaseous isoflurane and then maintained under gaseous anesthesia using a nose cone for the duration of the experiment. Body temperature was maintained with a heat pad. The fur from the lower left limb was removed using an electric razor followed by hair removal cream in order to allow skin contact of the ring electrodes. Ring electrodes were covered in electrical paste and were placed around the ankle and thigh area of the shaved limb. The rings were tightened so that there were no air gaps between the skin and electrodes but not so tight that blood flow was altered. A grounding electrode was placed into the base of the tail and stimulating electrodes were placed higher on the leg as near as possible to the sciatic nerve.
CMAPs were acquired by pulsing an electrical wave of […] duration to the sciatic notch. The position of the electrodes was tested prior to the final pulse in order to make sure they were placed correctly by visualizing the outcome of the pulse. The stimulation current was then increased until no further increase in CMAP was seen.

HSF1 regulated genes = assay: Example 1 in vivo pharmacodynamic study via subcutaneous dosing: expression of genes upregulated by HSF1 activation; set-up: species or system mouse
Description: (§3) Wildtype mice (3 per group) were dosed subcutaneously at 0, 0.5, 1.5, 5 and 10 mg/kg (6aS)-6-methyl-5,6,6a,7-tetrahydro-4H-dibenzo[de,g]quinoline-10,11-diol hydrochloride for 7 days once daily. One animal in the 10 mg/kg dosing group was actually dosed 15 mg/kg on Day 1. To prepare the dosing solutions, (6aS)-6-methyl-5,6,6a,7-tetrahydro-4H-dibenzo[de,g]quinoline-10,11-diol was pre-weighed into bijous and stored in foil.

[1] = tested on: Nrf2 and HSF1 target genes; assay: Example 4 target engagement qPCR of cortex tissue; assay type: in vivo, mouse; conditions: normalized to Gapdh
Description: This in vivo pharmacology study was designed to test the efficacy of (6aS)-6-methyl-5,6,6a,7-tetrahydro-4H-dibenzo[de,g]quinoline-10,11-diol on the progression of motor and cognitive decline in the TDP-43^Q331K mouse model. In addition, tissue was collected at the end of the experiment for target engagement (gene expression) analysis of Nrf2 and HSF1 target genes.
as §1, §2
Tissue was collected at 24 hours after the final morning dose. All animals were overdosed with an intraperitoneal injection of pentibarital (JML, M042) at the time of tissue collection (2.5 ml/kg). In the 6 month cohort (n=14), 7 animals per group were perfused to fix tissue for histology. For these animals, once animals had lost pedal reflex, the chest cavity was opened and 10 ml of PBS was perfused via the heart, followed by 10 ml of 4% PFA. Brain and spinal cord were extracted and stored in 4% PFA overnight before being changed to PBS. The lumbar section of the spinal cord was dissected and embedded. For the remaining 7 animals per group, once the animals had lost pedal reflex, blood was extracted via a cardiac puncture technique. The blood was collected and stored in 1 ml of RNALater (ThermoFisher). Spinal cords were removed and the upper section of spinal cord was snap frozen in liquid nitrogen for protein analysis, while the lower section was stored in RNALater and stored at −20° C. Cortex was removed and dissected into four parts, the front left segment was stored in RNALater, while the three other sections were snap frozen in liquid nitrogen.
For the 3 month cohort, tissue was collected in a similar way to the snap frozen tissue for 6 month cohort, however where tissue was stored in RNALater for the 6 month cohort, it was processed for RNA extraction immediately in the 3 month cohort.
RNA was extracted from lower spinal cord and cortex using the RNeasy lipid tissue mini kit (Qiagen, 74804) following the manufactures protocol. Briefly tissue was homogenized in a small volume (150 μl) of QIAzol using a hand-held homogenizer in a fume hood. Once homogenized, the total volume of QIAzol was increased to 1 ml. Samples were incubated at room temperature for 5 minutes after which 200 μl of chloroform (Honeywell) was added and samples were shaken vigorously for 15 seconds. Mixed samples were then incubated at room temperature for 3 minutes then centrifuged at 12,000g for 15 minutes at 4° C. in a bench top microcentrifuge.
The upper aqueous phase of the sample was transferred to a fresh labelled tube and 1 volume of 70% ethanol was added. Samples were vortexed and 700 μl of sample was transferred to RNeasy mini spin columns attached to 2 ml collection tubes. […]

NRF2 = assay: Example 1 in vivo pharmacodynamic study via subcutaneous dosing: expression of genes upregulated by NRF2 activation; set-up: species or system mouse; conditions: wildtype mice
Description: as §3

[2] = wildtype mice, 1.5 mg/kg s.c. once daily 7 days, 24 hours post final dose, compared to Actb
[3] = wildtype mice, 5 mg/kg s.c. once daily 7 days, 24 hours post final dose, compared to Gapdh
[4] = wildtype mice, 10 mg/kg s.c. once daily 7 days, 6 hours post final dose, compared to Actb
[5] = wildtype mice, 10 mg/kg s.c. once daily 7 days, 6 hours post final dose, compared to Gapdh
[6] = 3 months, 2.5 mg/kg dosing group
[7] = 5 mg/kg s.c. once daily 7 days, 24 hours post final dose, compared to Gapdh
[8] = 10 mg/kg s.c. once daily 7 days, 24 hours post final dose, compared to Actb

## CN1CCc2cccc3c2[C@@H]1Cc1ccc(O)c(O)c1-3 [(6aS)-6-methyl-5,6,6a,7-tetrahydro-4H-dibenzo[de,g]quinoline-10,11-diol]
TDP-43^Q331K mouse model; 2.5 mg/kg dosing group
  relative CMAP at 6 months (based on individual CMAP at 3 months) compared to the vehicle group: significant improvement
TDP-43^Q331K mouse model; 5 mg/kg dosing group
  relative CMAP at 6 months (based on individual CMAP at 3 months) compared to the vehicle group: significant improvement
TDP-43^Q331K mouse model; 3 months of age, 5 mg/kg dosing group
  CMAP compared to the vehicle dosing group: significant decrease
TDP-43^Q331K mouse model; 6 months of age, both dosing groups (2.5 mg/kg twice daily, 5 mg/kg once daily)
  CMAP compared to vehicle dosed animals: significant increase
TDP-43^Q331K mouse model; 6 weeks of age
  CMAP, between the different dosing groups: no significant difference
HSF1 regulated genes; mice, s.c. once daily 7 days, Example 1
  dose at which HSF1 regulated genes are activated (Hspa1a and Dnajb1 gene inductions): ≥ 0.5 mg/kg
HSF1 regulated genes; [2]
  Hspa1a gene induction: 2.3 fold
  Pgc1a gene induction: 1.7 fold
HSF1 regulated genes; [3]
  Hspa1a gene induction: 2.3 fold
  Pgc1a gene induction: 1.7 fold
HSF1 regulated genes; [4]
  Hspa1a gene induction: 2.0 fold
  Pgc1a gene induction: 1.5 fold
HSF1 regulated genes; [5]
  Dnajb1 gene induction: 1.3 fold
  Hspa1a gene induction: 2.2 fold
HSF1 regulated genes; wildtype mice, repeated dose of 5 mg/kg s.c. once daily 7 days, compared to Gapdh (6 hours post final dose per preceding sentence)
  Pgc1a gene induction: 1.8 fold
[1]; [6]
  GSR relative mRNA level compared to vehicle: upregulation
  Nqo1 relative mRNA level compared to vehicle: upregulation
  Osgin1 relative mRNA level compared to vehicle: upregulation
[1]; 3 months, 5 mg/kg dosing group
  GSR relative mRNA level compared to vehicle: significant upregulation
  Hspa1a relative mRNA level compared to vehicle: significant upregulation
  Nqo1 relative mRNA level compared to vehicle: significant upregulation
  Sqstm1 relative mRNA level compared to vehicle: significant upregulation
[1]; 6 months, 2.5 mg/kg twice daily
  Hspa1a relative mRNA level compared to vehicle: significant upregulation
[1]; 6 months, 5 mg/kg daily
  Hspa1a relative mRNA level compared to vehicle: significant upregulation
NRF2; 5 mg/kg s.c. once daily 7 days, 6 hours post final dose, compared to Gapdh
  Gclm gene induction: 1.5 fold
NRF2; [7]
  Gclm gene induction: 1.5 fold
  Nqo1 gene induction: 1.3 fold
NRF2; 10 mg/kg s.c. once daily 7 days, 6 hours post final dose, compared to Actb
  Gclm gene induction: 1.4 fold
NRF2; [8]
  Gclm gene induction: 1.2 fold
  NRF2-responsive gene induction: 1.4 fold
